Data taken from publication PMC9436958, “The synthesis of novel thioderivative chalcones and their influence on NF-κB, STAT3 and NRF2 signaling pathways in colorectal cancer cells” (Scientific Reports, 2022).

Key:
Assay type in all cases: cell-based
DLD-1 cells [1] = assay: MTT viability assay, DLD-1 cells; conditions: Homo sapiens, range 0.5–100 µM, read-out: IC50, cytotoxicity
Method: (§1) The DLD-1 and HCT116 colorectal carcinoma cell lines were purchased from ECACC. The HaCaT cell line of spontaneously immortalized keratinocytes was purchased from Cell Lines Service (Germany). The cells were cultured in Dulbecco’s Modified Eagle’s Medium (DMEM, Sigma-Aldrich, USA) with the addition of 10% FBS (EURx, Poland) and 1% antibiotic solution (penicillin and streptomycin) (Sigma-Aldrich, USA) at 37 °C in an atmosphere with 95% humidity and 5% CO2.
(§2) The effect of the tested compounds on the viability of DLD-1, HCT116 and HaCaT cells was assessed by the MTT assay according to the standard protocol.

HCT116 cells [2] = assay: MTT viability assay, HCT116 cells; conditions: Homo sapiens, HCT-116, range 0.5–100 µM, read-out: IC50, cytotoxicity
Method: as §1, §2

[3] = MTT viability assay, normal HaCaT cells; conditions: HaCaT cells (spontaneously immortalized keratinocytes), normal human HaCaT cells, read-out: IC50, cytotoxicity
Method: as §1, §2

IKKα/β = assay: Western blot, IKKα/β protein in cytosolic fraction; conditions: HCT116 cells; 4 at 1 μM
Method: (§3) Cytosolic and nuclear extracts were prepared using a Nuclear/Cytosol Fractionation Kit (BioVision Research, USA). Cytosolic extracts (for NF-κBp65, NF-κBp50, COX-2, iNOS, STAT3, c-Myc, Bcl-xl, Nrf2, SOD, GSTP, EGFR, Akt, p-Akt, Keap1, IKKα/β and β-actin) or nuclear extracts (for NF-κBp65, NF-κBp50, STAT3, p-STAT3, Nrf2, p-Nrf2 and lamin) were separated on 7.5%, 10% or 12% SDS–PAGE slab gels. Then, the proteins were transferred to a nitrocellulose Immobilon-P membrane. After blocking for 2 h with 10% skimmed milk, proteins were incubated with primary antibodies against NF-κBp65, NF-κBp50, COX-2, iNOS, STAT3, p-STAT3, c-Myc, Bcl-xl, Nrf2, p-Nrf2, SOD, GSTP, EGFR, Akt, p-Akt, Keap1, IKKα/β, β-actin, and lamin. Alkaline phosphatase (AP)-labeled anti-rabbit IgG, anti-goat IgG, and anti-mouse IgG secondary antibodies (Bio-Rad Laboratories, USA), as well as horseradish peroxidase (HRP)-conjugated anti-mouse IgG (Boster Bio, USA) secondary antibodies were used in the staining reaction. Bands were visualized by the AP Conjugate Substrate Kit NBT/BCIP or the chemiluminescent HRP substrate of the Clarity ECL Kit (Bio–Rad Laboratories, USA). The amount of immunoreactive product in each lane was determined using a ChemiDoc Imaging System (Bio–Rad Laboratories, USA). Values were calculated as relative absorbance units (RQ) per mg of protein and expressed as a percentage of the control.

STAT3 [4] = assay: Transcription factor ELISA, STAT3 binding to DNA; conditions: 2, 5 at 5 μM, 4 at 1 μM; for binding of STAT3 to DNA: HCT116 cells; for decrease in the binding of STAT3 to DNA: nuclear fraction of DLD-1 cells
Method: (§4) To estimate NF-ΚB (p50 and p65 subunits) STAT3 and Nrf2 activation, enzymatic immunoassays with the Transcription Factor ELISA Kit (TransAM™NF-κB, TransAM™STAT3/TransAM™Nrf2, Active Motif, Carlsbad CA, USA) were used following the manufacturer’s protocol. Briefly, proper consensus-site double-strand oligonucleotides (NF-κB—5′-GGGACTTTCC-3′; STAT3-5’—TTCCCGGAA-3’; Nrf2-5ʹ—[…]-3ʹ) were immobilized on an ELISA plate and incubated for one hour with the nuclear extracts. The activated subunits bound to DNA were recognized with a specific primary antibody and detected with an HRP-conjugated secondary antibody. The number of subunits was determined by spectrophotometry at λ = 450 nm. The number of p50, and p65 subunits, STAT3, as well as the amount of Nrf2 contained in the DNA-binding complex, corresponded to the activated NF-κB, STAT3, or Nrf2 transcription factors.

STAT3 [5] = assay: qRT-PCR, STAT3 mRNA; conditions: DLD-1 cells; 2, 5 at 5 μM, 4 at 1 μM
Method: (§5) Total RNA from cells was isolated with the GeneMatrix Universal DNA/RNA/Protein Purification Kit (EurX, Poland). For the qRT-PCR analyses, the Maxima SYBR Green I/ROX qPCR Master Mix (2×) (Thermo Fisher Scientific, USA) and the thermal cycler LightCycler (Roche, Germany) were used. The protocol started with 5 min of enzyme activation at 95 °C, followed by 40–50 cycles at 95 °C for 15 s, 56 °C for 20 s, 72 °C for 40 s, and final elongation at 72 °C for 5 min. Melting curve analysis was used for amplicon verification. The expression levels of TATA-box-binding protein (TBP) and porphobilinogen deaminase (PBGD) were used to normalize the data. The Pfaffl comparative method was used to calculate fold change. Primers were designed using Beacon Designer software (the sequences of primers used to analyze genes are listed in Table 2 of the supplementary materials).

Bcl-xl = Bcl-xl expression (qRT-PCR mRNA, Western blot protein); conditions: HCT116 cells, 5 at 5 μM; for Bcl-xl transcription: 4 at 1 μM
Method: as §3, §5

Nrf2 = assay: Transcription factor ELISA, Nrf2 binding to DNA
Method: as §4

EGFR = assay: Western blot, EGFR protein in cytosolic fraction; conditions: 4 at 1 μM
Method: as §3

p-Akt = assay: Western blot, p-Akt (Ser 473) protein in cytosolic fraction; conditions: 2, 5 at 5 μM, 4 at 1 μM
Method: as §3

DLD-1 cells [6] = assay: Apoptosis, Annexin V / 7-AAD flow cytometry, DLD-1; conditions: 48 h; for induction of apoptosis: mainly early and total apoptotic populations enriched
Method: (§6) Apoptosis was assessed by the detection of phosphatidylserine externalization based on Annexin V staining combined with fluorescent DNA intercalator 7-Aminoactinomycin D (7-AAD) what allowed for the discrimination between early and late apoptotic cells. The analysis was performed by flow cytometry using the Muse Annexin V & Dead Cell Kit (Luminex, USA) and the Muse Cell Analyzer (Merck, Germany), according to the manufacturer’s protocol. Cells were seeded (2 × 10^5 cells per well) in six-well plates and on the following day the analyzed compounds were added. Topotecan (Sigma-Aldrich, USA) was used as a positive control of apoptosis induction. After 48 h cells were collected by trypsinization, stained and after 20 min incubation at room temperature in the dark analyzed by flow cytometry. Three independent experiments were performed. Data were analyzed by Muse 1.5 Analysis Software (Merck, Germany).

HCT116 cells [7] = assay: Apoptosis, Annexin V / 7-AAD flow cytometry, HCT116; conditions: 48 h; for induction of apoptosis: increase of early, late and total apoptosis
Method: as §6

[8] = HCT116 cells, 4 at 1 μM, 2, 5, 6, 7 at 5 μM
[9] = doubled concentration: 4 at 2 μM, 5 at 10 μM

Structure (SMILES)	IC50 (DLD-1 cells [1]) [µM]	IC50 (HCT116 cells [2]) [µM]	IC50 [3] [µM]	IKKα/β, cytosolic fraction (IKKα/β)	binding of STAT3 to DNA (STAT3 [4])	decrease in the binding of STAT3 to DNA (STAT3 [4]) [%]	STAT3 gene expression (mRNA) (STAT3 [5])	Bcl-xl transcription (Bcl-xl)	Nrf2 binding to a specific nucleotide sequence (ELISA) (Nrf2; [8])	level of EGFR (EGFR; DLD-1 cells, 2, 5 at 5 μM)	level of EGFR (EGFR; HCT116 cells)	phosphorylation of p-Akt (Ser 473) (p-Akt; DLD-1 cells)	phosphorylation of p-Akt (Ser 473) (p-Akt; HCT116 cells)	induction of apoptosis (DLD-1 cells [6])	late and total apoptosis compared with BAY 11-7082 (5 µM) (HCT116 cells [7]; [9])	induction of apoptosis (HCT116 cells [7])	Bcl-xl protein level (Bcl-xl)	Nrf2 binding to a specific nucleotide sequence (ELISA) (Nrf2; DLD-1 cells, 1 at 1 μM, 3, 5, 7, 8 at 5 μM)	total apoptotic cells compared with BAY 11-7082 (5 µM) (DLD-1 cells [6]; 5 in higher concentration)	late and total apoptosis compared with BAY 11-7082 (5 µM) (HCT116 cells [7]; standard concentration: 5 at 5 μM)
COc1cc(C(=O)/C=C/c2cccc(SC)c2)cc(Br)c1OC [chalcone 4]	2	20	3	inactivation	decreased the binding of STAT3 to DNA	30	decreased	decreased Bcl-xl transcription	statistically significant increase	significantly decreased the level of EGFR	significantly decreased the level of EGFR	significantly reduced phosphorylation of p-Akt	significantly reduced phosphorylation of p-Akt	able to induce apoptosis	higher percentage of late and total apoptosis than BAY 11-7082	able to induce apoptosis				
COc1cc(/C=C/C(=O)c2cc(Br)c(SC)c(OC)c2)ccc1SC [chalcone 5]	11	13	14		decreased the binding of STAT3 to DNA	20	decreased	decreased Bcl-xl transcription	statistically significant increase	significantly decreased the level of EGFR		significantly reduced phosphorylation of p-Akt	significantly reduced phosphorylation of p-Akt	able to induce apoptosis	higher percentage of late and total apoptosis than BAY 11-7082	able to induce apoptosis	correlated with Bcl-xl protein level	statistically significant increase	comparable effect	higher percentage of late and total apoptosis than BAY 11-7082
